Reference: patent publication US10744146B2, “Composition having effects of preventing or ameliorating conditions or diseases caused by brain hypofunction” (SUNTORY HOLDINGS LIMITED, priority 2001, dated 2020)

Tests used:
hippocampus LTP = settings: 22-month-old rats, arachidonic acid diet 10 mg/rat/day for 8 weeks; versus 4-month-old young rats; cited from earlier work
old male Fischer rats = assay: Probe test after Morris water maze learning (time in quadrant where escape platform used to be); type: in vivo, rat; settings: for time spent in the quadrant (¼) where the escape platform used to be, mean±standard deviation: old rats 21 months
Protocol: A Morris water maze learning test was conducted around the third month of the experiment (age of old rats: 21 months, age of young rats: 7 months). The Morris water maze test is a learning test based on spatial recognition in which water stained black with ink is filled (height of water level: 20 cm) into a water tank (diameter: 120 cm, height: 35 cm), a rat is placed on an escape platform of a size (diameter: 11.5 cm, height: 19 cm) that is just large enough for the rat to stand on (the escape platform is located beneath the surface of the water and cannot be seen by rats swimming in the water tank), the rat on which the learning test is to be performed is placed in the water tank at a predetermined location in the tank (starting point), and then forced to swim to the escape platform. This test is recognized to have a correlation with the hippocampus that governs memory, and is widely used in the US and Europe. As the test is repeated, the rats learn the location of the escape platform. The rats were allowed to learn using the method described below. Namely, after releasing a rat from the starting point of the Morris water maze test apparatus, if the rat was unable to reach the escape platform within 60 seconds, the rat was placed on the escape platform, thereby enabling it to learn the location of the unseen escape platform. This learning process was continued for 2 weeks no more than twice a day. The percentage of the amount of time required to swim from the starting point to the escape platform within an angular deviation range of ±15° to the total swimming time (Hit %, see FIG. 2) was used as an indicator of learning. […] In FIG. 3, each graduation on the scale of the horizontal axis represents four trials, or two days worth of testing.
Next, in order to determine the degree of learning acquisition, a probe test was conducted on the day after two weeks of the aforementioned learning, namely on day 15. If the escape platform is taken away after the rats have acquired learning, the rats swim around at the location where the escape platform used to be. The time during which the rats swim around at the former location of the escape platform based on the memory of where it used to be (evaluated by dividing the water tank into four quadrants and evaluated as the amount of time (seconds) spent in the quadrant where the escape platform used to be) can used to evaluate the degree of learning acquisition. The paths swam by the No. 1 and No. 2 rats of the YC group, OA group and OC group are shown (FIG. 4). Furthermore, as the rats were allowed to learn by changing the starting points for individual rats, the starting point (S) and quadrant where the escape platform used to be in FIG. 4 differ according to individual rats. […]

CCCCC/C=C\C/C=C\C/C=C\C/C=C\CCCC(=O)O [arachidonic acid]
hippocampus LTP levels (hippocampus LTP): recovery to the level of young rats

CCCCC/C=C\C/C=C\C/C=C\C/C=C\CCCC(=O)OC(COC(=O)CCCCCCC)COC(=O)CCCCCCC [8A8, 1,3-capryloyl-2-arachidonoyl-glycerol]
absorption (old male Fischer rats; Example 4, inferred from the probe test at the same ingested amount of arachidonic acid): more easily absorbed than TGA40S
time spent in the quadrant (¼) where the escape platform used to be, mean±standard deviation (old male Fischer rats; Example 4, 40 mg arachidonic acid/rat/day, group OA 6 animals, group 8A8 8 animals): 27.18 ± 5.10 s
degree of learning acquisition (old male Fischer rats; Example 4, old rats, comparison between TGA40S and 8A8 and with young rats): tended to result in a higher degree of learning acquisition
time spent in the quadrant (¼) where the escape platform used to be, mean±standard deviation (old male Fischer rats; Example 5, arachidonic acid per rat per day: 8A8 diet 40 g (so in the source), 8A8-containing oil or fat diet 13.2 mg): 27.00 ± 4.65 s
